# Values quoted from earlier work, collected in US6329550A, “Amidomalonamides useful as inhibitors of MMP of matrix metalloproteinase” (Aventis Pharmaceuticals Inc., priority 1999, dated 2001).
# Test system: B16-BL6 murine melanoma
# Details: intraperitoneal administration; lung colonies produced by intravenous injection of B16-BL6 murine melanoma in C57BL/6N mice
smiles,measurement,value
CNC(=O)[C@H](Cc1ccccc1)NC(=O)[C@H](CC(C)C)[C@H](CSc1cccs1)C(=O)NO [batimastat],growth and metastatic spread and number of lung colonies,significant inhibition
